Results on 27 compounds are retold here after patent publication US11332459B2 (TEIJIN PHARMA LIMITED, priority 2017, dated 2022).

For the test, the target named is T1, human TRPC6 (Homo sapiens, UniProt Q9Y210).
T1 construct: expressed in transfected cells
T1 sequence (Q9Y210 1-931): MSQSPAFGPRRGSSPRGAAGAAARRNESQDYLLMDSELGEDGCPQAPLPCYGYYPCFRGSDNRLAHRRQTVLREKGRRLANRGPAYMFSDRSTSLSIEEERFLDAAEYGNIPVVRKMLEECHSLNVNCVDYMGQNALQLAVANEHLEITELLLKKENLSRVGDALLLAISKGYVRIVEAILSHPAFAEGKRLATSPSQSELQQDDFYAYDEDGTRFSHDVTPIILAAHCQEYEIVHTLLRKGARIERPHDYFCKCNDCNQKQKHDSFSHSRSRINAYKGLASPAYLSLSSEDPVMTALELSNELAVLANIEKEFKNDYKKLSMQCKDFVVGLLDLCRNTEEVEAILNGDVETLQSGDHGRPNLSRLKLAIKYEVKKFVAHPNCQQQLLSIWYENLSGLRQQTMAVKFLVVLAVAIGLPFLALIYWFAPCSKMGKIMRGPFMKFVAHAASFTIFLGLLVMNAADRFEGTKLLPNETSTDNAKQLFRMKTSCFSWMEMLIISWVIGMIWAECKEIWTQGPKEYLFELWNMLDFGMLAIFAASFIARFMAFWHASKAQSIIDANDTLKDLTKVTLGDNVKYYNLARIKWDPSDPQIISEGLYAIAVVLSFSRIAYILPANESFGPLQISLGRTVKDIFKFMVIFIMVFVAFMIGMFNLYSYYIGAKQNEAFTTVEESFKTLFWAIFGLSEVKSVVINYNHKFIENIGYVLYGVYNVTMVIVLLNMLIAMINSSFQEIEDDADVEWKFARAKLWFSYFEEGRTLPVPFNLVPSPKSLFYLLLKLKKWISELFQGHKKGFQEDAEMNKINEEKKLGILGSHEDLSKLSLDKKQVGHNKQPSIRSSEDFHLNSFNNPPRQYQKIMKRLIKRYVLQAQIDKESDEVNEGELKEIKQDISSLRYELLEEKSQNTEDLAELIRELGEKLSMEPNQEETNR
The test can be described thus: TRPC6 calcium flux assay (FLIPR, OAG-stimulated calcium influx). The following applies: HEK293 cells stably transfected with human TRPC6, read-out: hTRPC6 Potency. It counts as cell-based. The gist of the method: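 HEK293 cells stably expressing human TRPC6, loaded with calcium dye 90–120 min at RT, then given compound for 25 min before OAG (50 uM final, 0.5% DMSO) in HEPES buffer pH 7.2 with 2 mM CaCl2. Background-subtracted FLIPR peak over 180 s normalized to OAG vs buffer; IC50 from dose plot.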
On the technique in general: Calcium flux is commonly read through the fluorescence of an indicator in the cells.

As to `N[C@@H]1CN(c2nc3c(F)cc(F)cc3n2Cc2nnc(C(F)F)s2)CC[C@H]1F` [Example 557, (3R,4R)-1-(1-((5-(difluoromethyl)-1,3,4-thiadiazol-2-yl)methyl)-4,6-difluoro-1H-benzo[d]imidazol-2-yl)-4-fluoropiperidin-3-amine], the IC50 stood at 12.8 nM. Turning to `CN(CC(F)(F)F)C(=O)Cn1c(N2CC[C@@H](F)[C@H](N)C2)nc2c(F)cc(F)cc21` [Example 558, 2-(2-((3R,4R)-3-amino-4-fluoropiperidin-1-yl)-4,6-difluoro-1H-benzo[d]imidazol-1-yl)-N-methyl-N-(2,2,2-trifluoroethyl)acetamide], the IC50 stood at 16.1 nM.

As to `CN(CC(F)(F)F)C(=O)Cn1c(N2CC[C@@H](F)[C@H](N)C2)nc2ccc(Cl)cc21` [Example 559, 2-(2-((3R,4R)-3-amino-4-fluoropiperidin-1-yl)-6-chloro-1H-benzo[d]imidazol-1-yl)-N-methyl-N-(2,2,2-trifluoroethyl)acetamide], the IC50 stood at 16.6 nM.

Take `N[C@@H]1CN(c2nc3cc(F)c(F)cc3n2Cc2nnc(C(F)F)s2)CC[C@H]1F` [Example 560, (3R,4R)-1-(1-((5-(difluoromethyl)-1,3,4-thiadiazol-2-yl)methyl)-5,6-difluoro-1H-benzo[d]imidazol-2-yl)-4-fluoropiperidin-3-amine]: the IC50 worked out at 18.7 nM. As for `Cc1nnc(Cn2c(N3CC[C@@H](F)[C@H](N)C3)nc3ccc(F)cc32)s1` [Example 561, (3R,4R)-4-fluoro-1-(6-fluoro-1-((5-methyl-1,3,4-thiadiazol-2-yl)methyl)-1H-benzo[d]imidazol-2-yl)piperidin-3-amine], the figure is 19.8 nM. The same measure for `CS(=O)(=O)c1ccc(Cn2c(N3CC[C@@H](F)[C@H](N)C3)nc3cc(F)c(F)cc32)nc1` [Example 562, (3R,4R)-1-(5,6-difluoro-1-((5-(methylsulfonyl)pyridin-2-yl)methyl)-1H-benzo[d]imidazol-2-yl)-4-fluoropiperidin-3-amine]: 20.8 nM; for `CN(C)C(=O)Cn1c(N2CC[C@@H](F)[C@H](N)C2)nc2ccc(C(F)(F)F)cc21` [Example 563, 2-(2-((3R,4R)-3-amino-4-fluoropiperidin-1-yl)-6-(trifluoromethyl)-1H-benzo[d]imidazol-1-yl)-N,N-dimethylacetamide]: 21.6 nM. As for `Cc1cc(Cn2c(N3CC[C@@H](F)[C@H](N)C3)nc3cc(F)c(F)cc32)no1` [Example 564, (3R,4R)-1-(5,6-difluoro-1-((5-methylisoxazol-3-yl)methyl)-1H-benzo[d]imidazol-2-yl)-4-fluoropiperidin-3-amine], the figure is 29.2 nM; as for `CN(C)C(=O)Cn1c(N2CC[C@@H](F)[C@H](N)C2)nc2c(F)cc(F)cc21` [Example 565, 2-(2-((3R,4R)-3-amino-4-fluoropiperidin-1-yl)-4,6-difluoro-1H-benzo[d]imidazol-1-yl)-N,N-dimethylacetamide], 32.2 nM. `CN(C)C(=O)Cn1c(N2CC[C@@H](F)[C@H](N)C2)nc2ccc(F)cc21` [Example 566, 2-(2-((3R,4R)-3-amino-4-fluoropiperidin-1-yl)-6-fluoro-1H-benzo[d]imidazol-1-yl)-N,N-dimethylacetamide]: the IC50 was determined as 35.2 nM. As to `Cc1cnc(Cn2c(N3CC[C@@H](F)[C@H](N)C3)nc3cc(F)c(F)cc32)o1` [Example 567, (3R,4R)-1-(5,6-difluoro-1-((5-methyloxazol-2-yl)methyl)-1H-benzo[d]imidazol-2-yl)-4-fluoropiperidin-3-amine], the IC50 stood at 39.8 nM.

On to `Cc1csc(Cn2c(N3CC[C@@H](F)[C@H](N)C3)nc3cc(F)c(F)cc32)n1` [Example 568, (3R,4R)-1-(5,6-difluoro-1-((4-methylthiazol-2-yl)methyl)-1H-benzo[d]imidazol-2-yl)-4-fluoropiperidin-3-amine], for which the IC50 was 48.1 nM.

As for `N[C@@H]1CN(c2nc3ccc(F)cc3n2Cc2nc(C(F)(F)F)no2)CC[C@H]1F` [Example 569, (3R,4R)-4-fluoro-1-(6-fluoro-1-((3-(trifluoromethyl)-1,2,4-oxadiazol-5-yl)methyl)-1H-benzo[d]imidazol-2-yl)piperidin-3-amine], the IC50 was 78.4 nM. As for `CN(CC(F)(F)F)C(=O)Cn1c(N2CC[C@@H](F)[C@H](N)C2)nc2cc(Cl)ccc21` [Example 570, 2-(2-((3R,4R)-3-amino-4-fluoropiperidin-1-yl)-5-chloro-1H-benzo[d]imidazol-1-yl)-N-methyl-N-(2,2,2-trifluoroethyl)acetamide], the figure is 85.4 nM; as for `Cc1nnc(Cn2c(N3CC[C@@H](F)[C@H](N)C3)nc3cc(F)c(F)cc32)o1` [Example 571, (3R,4R)-1-(5,6-difluoro-1-((5-methyl-1,3,4-oxadiazol-2-yl)methyl)-1H-benzo[d]imidazol-2-yl)-4-fluoropiperidin-3-amine], 93.2 nM; as for `Cc1nc(Cn2c(N3CC[C@@H](F)[C@H](N)C3)nc3cc(F)c(F)cc32)no1` [Example 572, (3R,4R)-1-(5,6-difluoro-1-((5-methyl-1,2,4-oxadiazol-3-yl)methyl)-1H-benzo[d]imidazol-2-yl)-4-fluoropiperidin-3-amine], 106 nM. The same measure for `N[C@@H]1CN(c2nc3ccc(F)cc3n2Cc2nnc(C(F)F)s2)CC[C@H]1F` [Example 573, (3R,4R)-1-(1-((5-(difluoromethyl)-1,3,4-thiadiazol-2-yl)methyl)-6-fluoro-1H-benzo[d]imidazol-2-yl)-4-fluoropiperidin-3-amine]: 117 nM. As for `Cc1nnc(Cn2c(N3CC[C@@H](F)[C@H](N)C3)nc3ncc(F)cc32)s1` [Example 574, (3R,4R)-4-fluoro-1-(6-fluoro-1-((5-methyl-1,3,4-thiadiazol-2-yl)methyl)-1H-imidazo[4,5-b]pyridin-2-yl)piperidin-3-amine], the figure is 153 nM. Regarding `Cc1nc(Cn2c(N3CC[C@@H](F)[C@H](N)C3)nc3cc(F)c(F)cc32)oc1C` [Example 575, (3R,4R)-1-(1-((4,5-dimethyloxazol-2-yl)methyl)-5,6-difluoro-1H-benzo[d]imidazol-2-yl)-4-fluoropiperidin-3-amine], the IC50 amounted to 155 nM. Consider `CN(C)C(=O)Cn1c(N2CC[C@@H](F)[C@H](N)C2)nc2cc(F)ccc21` [Example 576, 2-(2-((3R,4R)-3-amino-4-fluoropiperidin-1-yl)-5-fluoro-1H-benzo[d]imidazol-1-yl)-N,N-dimethylacetamide], for which the IC50 stood at 169 nM.

Regarding `CCc1nc(Cn2c(N3CC[C@@H](F)[C@H](N)C3)nc3cc(F)c(F)cc32)no1` [Example 577, (3R,4R)-1-(1-((5-ethyl-1,2,4-oxadiazol-3-yl)methyl)-5,6-difluoro-1H-benzo[d]imidazol-2-yl)-4-fluoropiperidin-3-amine], the IC50 worked out at 184 nM.

For the compound `N[C@@H]1CN(c2nc3cc(F)c(F)cc3n2Cc2noc(C3CC3)n2)CC[C@H]1F` [Example 578, (3R,4R)-1-(1-((5-cyclopropyl-1,2,4-oxadiazol-3-yl)methyl)-5,6-difluoro-1H-benzo[d]imidazol-2-yl)-4-fluoropiperidin-3-amine], the IC50 was found to be 251 nM. As for `Cc1cc(Cn2c(N3CC[C@@H](F)[C@H](N)C3)nc3cc(F)c(F)cc32)on1` [Example 579, (3R,4R)-1-(5,6-difluoro-1-((3-methylisoxazol-5-yl)methyl)-1H-benzo[d]imidazol-2-yl)-4-fluoropiperidin-3-amine], the figure is 312 nM. As for `CN(CC(F)(F)F)C(=O)Cn1c(N2CC[C@@H](F)[C@H](N)C2)nc2cc(C(F)(F)F)ccc21` [Example 580, 2-(2-((3R,4R)-3-amino-4-fluoropiperidin-1-yl)-5-(trifluoromethyl)-1H-benzo[d]imidazol-1-yl)-N-methyl-N-(2,2,2-trifluoroethyl)acetamide], the figure is 365 nM. As for `N[C@@H]1CN(c2nc3cc(F)c(F)cc3n2Cc2nnc(C3CC3)o2)CC[C@H]1F` [Example 581, (3R,4R)-1-(1-((5-cyclopropyl-1,3,4-oxadiazol-2-yl)methyl)-5,6-difluoro-1H-benzo[d]imidazol-2-yl)-4-fluoropiperidin-3-amine], the figure is 368 nM. Take `Cc1nnc(Cn2c(N3CC[C@@H](F)[C@H](N)C3)nc3cc(F)ccc32)s1` [Example 582, (3R,4R)-4-fluoro-1-(5-fluoro-1-((5-methyl-1,3,4-thiadiazol-2-yl)methyl)-1H-benzo[d]imidazol-2-yl)piperidin-3-amine]: the IC50 is 376 nM. In the case of `N[C@@H]1CN(c2nc3cc(F)cnc3n2Cc2ncc(Cl)cn2)CC[C@H]1F` [Example 583], the IC50 was determined as 420 nM.
